Assay results from patent publication US20120115845A1, “THERAPEUTIC AGENTS” (priority 2007, published 2012).

Columns and labels:
human GHS receptor [1] = molecular target: T1, human GHS receptor (Homo sapiens, UniProt Q92847); test: Ghrelin IP1 agonist assay (IP1 HTRF); type: cell-based; set-up: expressed in transfected cells; host or cells: HEK293s; details: for Emax: 2 h, agonist effect as % maximal effect of GHRP-6 (5 μM), read-out: h IP1 ag %; for EC50: HEK293s cells stably expressing human GHS receptor, 2 hours at 37° C., read-out: h IP1 ag EC50
Procedure, shortened: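 Cells: HEK293s stably expressing human GHS receptor, in stimulation buffer containing 0.02% fatty acid free BSA.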

human GHS receptor [2] = molecular target: T1, human GHS receptor; test: h bind IC50 (binding assay, Table 1); details: human receptor; Table 1

T1 sequence (Q92847 whole entry): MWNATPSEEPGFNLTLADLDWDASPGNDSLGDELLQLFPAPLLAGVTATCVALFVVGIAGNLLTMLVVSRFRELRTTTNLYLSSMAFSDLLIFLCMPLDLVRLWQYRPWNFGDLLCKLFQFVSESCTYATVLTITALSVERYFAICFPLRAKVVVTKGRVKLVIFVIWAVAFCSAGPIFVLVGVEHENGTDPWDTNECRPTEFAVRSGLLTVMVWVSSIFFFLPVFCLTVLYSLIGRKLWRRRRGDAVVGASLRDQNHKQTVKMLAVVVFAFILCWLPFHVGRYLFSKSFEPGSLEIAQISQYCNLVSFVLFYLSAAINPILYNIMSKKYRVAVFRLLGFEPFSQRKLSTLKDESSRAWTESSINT

Row | Emax (human GHS receptor [1]) | EC50 (human GHS receptor [1]) | IC50 (human GHS receptor [2]) | Structure (SMILES)
1 | 46.7% | 27.3 nM | 107 nM | O=C(NC(=O)c1ccccc1Cl)Nc1nc2ccc(S(=O)(=O)C3CCCNC3)cc2s1 (stereo not drawn) [Example 139, 2-Chloro-N-[[6-(3-piperidylsulfonyl)benzothiazol-2-yl]carbamoyl]benzamide]
2 | 42.5% | 62 nM | 289 nM | CC(C)N1CCCC(S(=O)(=O)c2ccc3nc(NC(=O)NC(=O)c4ccccc4Cl)sc3c2)C1 (stereo not drawn) [Example 140, 2-Chloro-N-[[6-[(1-propan-2-yl-3-piperidyl)sulfonyl]benzothiazol-2-yl]carbamoyl]benzamide]
3 | 22.7% | 184 nM | 111 nM | CCc1ccccc1C(=O)NC(=O)Nc1nc2ccc(S(C)(=O)=O)cc2s1 [Example 141, 2-Ethyl-N-[(6-methylsulfonylbenzothiazol-2-yl)carbamoyl]benzamide]
4 | 24.5% | 35.1 nM | 851 nM | CCN1CCCC(S(=O)(=O)c2ccc3nc(NC(=O)NC(=O)c4ccccc4Cl)sc3c2)C1 (stereo not drawn) [Example 142, 2-Chloro-N-[[6-[(1-ethyl-3-piperidyl)sulfonyl]benzothiazol-2-yl]carbamoyl]benzamide]
5 | 40.7% | 30 nM | 269 nM | O=C(NC(=O)c1ccccc1Cl)Nc1nc2ccc(S(=O)(=O)CCCN3CCOCC3)cc2s1 [Example 146, 2-Chloro-N-[[6-(3-morpholin-4-ylpropylsulfonyl)benzothiazol-2-yl]carbamoyl]benzamide]
6 | 17.7% | 52.9 nM | 830 nM | O=C(NC(=O)c1ccccc1Cl)Nc1nc2ccc(S(=O)(=O)CCCCl)cc2s1 [Example 148, 2-Chloro-N-[[6-(3-chloropropylsulfonyl)benzothiazol-2-yl]carbamoyl]benzamide]
7 | 33.4% | 30.9 nM | 52.7 nM | O=C(NC(=O)c1ccccc1Cl)Nc1nc2ccc(S(=O)(=O)CCCN3CCS(=O)(=O)CC3)cc2s1 [Example 150, 2-Chloro-N-[[6-[3-(1,1-dioxo-1,4-thiazinan-4-yl)propylsulfonyl]benzothiazol-2-yl]carbamoyl]benzamide]
8 | 74.3% | 2.23 nM | 10.8 nM | O=C(NC(=O)c1ccccc1Cl)Nc1nc2ccc(S(=O)(=O)CCCNCC3CC3)cc2s1 [Example 151, 2-Chloro-N-[[6-[3-(cyclopropylmethylamino)propylsulfonyl]benzothiazol-2-yl]carbamoyl]benzamide]
9 | 46.6% | 23.9 nM | 19.1 nM | O=C(NC(=O)c1ccccc1Cl)Nc1nc2ccc(S(=O)(=O)CCCN3CCCCC3)cc2s1 [Example 152, 2-Chloro-N-[[6-[3-(1-piperidyl)propylsulfonyl]benzothiazol-2-yl]carbamoyl]benzamide]
10 | 47% | 10.9 nM | 12.5 nM | CCN(CC)CCCS(=O)(=O)c1ccc2nc(NC(=O)NC(=O)c3ccccc3Cl)sc2c1 [Example 153, 2-Chloro-N-[[6-(3-diethylaminopropylsulfonyl)benzothiazol-2-yl]carbamoyl]benzamide]
11 | 55.2% | 2.25 nM | 1.2 nM | CN1CCN(CCCS(=O)(=O)c2ccc3nc(NC(=O)NC(=O)c4ccccc4Cl)sc3c2)CC1 [Example 155, 2-Chloro-N-[[6-[3-(4-methylpiperazin-1-yl)propylsulfonyl]benzothiazol-2-yl]carbamoyl]benzamide]
12 | 51.6% | 17.6 nM | 8.5 nM | O=C(NC(=O)c1ccccc1Cl)Nc1nc2ccc(S(=O)(=O)CCCNCCO)cc2s1 [Example 159, 2-Chloro-N-[[6-[3-(2-hydroxyethylamino)propylsulfonyl]benzothiazol-2-yl]carbamoyl]benzamide]
13 | 56% | 6.18 nM | 105 nM | CS(=O)(=O)c1ccc2nc(NC(=O)NC(=O)c3cc(Br)ccc3Cl)sc2c1 [Example 161, 5-Bromo-2-chloro-N-[(6-methylsulfonylbenzothiazol-2-yl)carbamoyl]benzamide]
14 | 48.3% | 11.4 nM | 296 nM | CC(C)N1CCC(S(=O)(=O)c2ccc3nc(NC(=O)NC(=O)c4ccccc4Cl)sc3c2)C1 (stereo not drawn) [Example 162, 2-Chloro-N-[[6-(1-propan-2-ylpyrrolidin-3-yl)sulfonylbenzothiazol-2-yl]carbamoyl]benzamide]
15 | 43.9% | 70.2 nM | 174 nM | CCN1CCC[C@@H]1CS(=O)(=O)c1ccc2nc(NC(=O)NC(=O)c3ccccc3Cl)sc2c1 [Example 164, 2-Chloro-N-[[6-[[(2R)-1-ethylpyrrolidin-2-yl]methylsulfonyl]benzothiazol-2-yl]carbamoyl]benzamide]
16 | 49.4% | 67.1 nM | 127 nM | O=C(NC(=O)c1ccccc1Cl)Nc1nc2ccc(S(=O)(=O)C[C@H]3CCCN3)cc2s1 [Example 165, 2-Chloro-N-[[6-[[(2R)-pyrrolidin-2-yl]methylsulfonyl]benzothiazol-2-yl]carbamoyl]benzamide]

Row | Emax (human GHS receptor [1]) | EC50 (human GHS receptor [1]) | IC50 (human GHS receptor [2]) | Structure (SMILES)
17 | 53.9% | 46.4 nM | 280 nM | CN1CCCC(S(=O)(=O)c2ccc3nc(NC(=O)NC(=O)c4ccccc4Cl)sc3c2)C1 (stereo not drawn) [Example 166, 2-Chloro-N-[[6-[(1-methyl-3-piperidyl)sulfonyl]benzothiazol-2-yl]carbamoyl]benzamide]
18 | 37% | 4.13 nM | 20.6 nM | CC(C)N1CCC[C@@H]1CS(=O)(=O)c1ccc2nc(NC(=O)NC(=O)c3ccccc3Cl)sc2c1 [Example 168, 2-Chloro-N-[[6-[[(2R)-1-propan-2-ylpyrrolidin-2-yl]methylsulfonyl]benzothiazol-2-yl]carbamoyl]benzamide]
19 | 9.73% | 75.7 nM | 831 nM | CS(=O)(=O)c1ccc2nc(NC(=O)NC(=O)c3ccccc3C(F)(F)F)sc2c1 [Example 170, N-[(6-Methylsulfonylbenzothiazol-2-yl)carbamoyl]-2-(trifluoromethyl)benzamide]
20 | 44% | 18.6 nM | 296 nM | O=C(NC(=O)c1ccccc1Cl)Nc1nc2ccc(S(=O)(=O)[C@H]3CCNC3)cc2s1 [Example 171, 2-Chloro-N-[[6-[(3S)-pyrrolidin-3-yl]sulfonylbenzothiazol-2-yl]carbamoyl]benzamide]
21 | 44.4% | 7.31 nM | 28.3 nM | O=C(NC(=O)c1ccccc1Cl)Nc1nc2ccc(S(=O)(=O)[C@@H]3CCNC3)cc2s1 [Example 172, 2-Chloro-N-[[6-[(3R)-pyrrolidin-3-yl]sulfonylbenzothiazol-2-yl]carbamoyl]benzamide]
22 | 52.2% | 8.43 nM | 76.2 nM | CCN1CCC(S(=O)(=O)c2ccc3nc(NC(=O)NC(=O)c4ccccc4Cl)sc3c2)CC1 [Example 173, 2-Chloro-N-[[6-[(1-ethyl-4-piperidyl)sulfonyl]benzothiazol-2-yl]carbamoyl]benzamide]
23 | 30.1% | 22.4 nM | 64.1 nM | O=C(NC(=O)c1ccccc1Cl)Nc1nc2ccc(S(=O)(=O)C3CN(CC4CC4)C3)cc2s1 [Example 175, 2-Chloro-N-[[6-[1-(cyclopropylmethyl)azetidin-3-yl]sulfonylbenzothiazol-2-yl]carbamoyl]benzamide]
24 | 22.8% | 66.4 nM | 248 nM | CS(=O)(=O)c1ccc2nc(NC(=O)NC(=O)c3cc(F)c(F)cc3Cl)sc2c1 [Example 177, 2-Chloro-4,5-difluoro-N-[(6-methylsulfonylbenzothiazol-2-yl)carbamoyl]benzamide]
25 | 18.7% | 77.7 nM | 108 nM | O=C(NC(=O)c1ccccc1Cl)Nc1nc2ccc(S(=O)(=O)Cc3ccccn3)cc2s1 [Example 178, 2-Chloro-N-[[6-(pyridin-2-ylmethylsulfonyl)benzothiazol-2-yl]carbamoyl]benzamide]
26 | 61.2% | 5.91 nM | 18.3 nM | CS(=O)(=O)c1ccc2nc(NC(=O)NC(=O)c3ccc(Cl)cc3Cl)sc2c1 [Example 179, 2,4-Dichloro-N-[(6-methylsulfonylbenzothiazol-2-yl)carbamoyl]benzamide]
27 | 5.93% | 67.3 nM | 127 nM | CS(=O)(=O)c1ccc2nc(NC(=O)NC(=O)c3ccc([N+](=O)[O-])cc3Cl)sc2c1 [Example 180, 2-Chloro-N-[(6-methylsulfonylbenzothiazol-2-yl)carbamoyl]-4-nitro-benzamide]
28 | 54.4% | 0.633 nM | 49 nM | CS(=O)(=O)c1ccc2nc(NC(=O)NC(=O)c3cc(C(F)(F)F)ccc3Cl)sc2c1 [Example 181, 2-Chloro-N-[(6-methylsulfonylbenzothiazol-2-yl)carbamoyl]-5-(trifluoromethyl)benzamide]
29 | 39.6% | 25.1 nM | 8.9 nM | O=C(NC(=O)c1ccccc1Cl)Nc1nc2ccc(S(=O)(=O)C3CCN(CC4CC4)CC3)cc2s1 [Example 182, 2-Chloro-N-[[6-[[1-(cyclopropylmethyl)-4-piperidyl]sulfonyl]benzothiazol-2-yl]carbamoyl]benzamide]
30 | 42.1% | 13.8 nM | 6.7 nM | O=C(NC(=O)c1ccccc1Cl)Nc1nc2ccc(S(=O)(=O)C3CNC3)cc2s1 [Example 183, N-[[6-(Azetidin-3-ylsulfonyl)benzothiazol-2-yl]carbamoyl]-2-chloro-benzamide]
31 | 39.7% | 69.2 nM | 66.9 nM | CCN1CC(S(=O)(=O)c2ccc3nc(NC(=O)NC(=O)c4ccccc4Cl)sc3c2)C1 [Example 185, 2-Chloro-N-[[6-(1-ethylazetidin-3-yl)sulfonylbenzothiazol-2-yl]carbamoyl]benzamide]
